The source made the active and inactive calls. The rule behind the calls is not given here.
Assays:
MDA-MB-231 [1] = assay: Induction of cell death in human MDA-MB-231 cells assessed as decrease in green fluorescence at 0.5 uM incubated for 24 hrs followed by light irradiation of 20 mW.cm/2 at 400 to 700nm for 10 mins by Calcein-AM/PI staining based analysis; format: functional
4T1 [2] = assay: Induction of cell death in mouse 4T1 cells assessed as decrease in green fluorescence at 0.5 uM incubated for 24 hrs followed by light irradiation of 20 mW.cm/2 at 400 to 700nm for 10 mins by Calcein-AM/PI staining based analysis; format: functional
MDA-MB-231 [3] = assay: Induction of cell death in human MDA-MB-231 cells assessed as increase in red fluorescence at 0.5 uM incubated for 24 hrs followed by light irradiation of 20 mW.cm/2 at 400 to 700nm for 10 mins by Calcein-AM/PI staining based analysis; format: functional
[4] = Phototoxicity against mouse 4T1 cells preincubated for 24 hrs followed by light irradiation of 20 mW.cm/2 at 400 to 700nm for 10 mins under hypoxia condition by CCK-8 method; format: functional, cell-based; settings: 4T1, light or radiation study
[5] = Phototoxicity against human MDA-MB-231 cells preincubated for 24 hrs followed by light irradiation of 20 mW.cm/2 at 400 to 700nm for 10 mins under hypoxia condition by CCK-8 method; format: functional, cell-based; settings: MDA-MB-231, light or radiation study
4T1 [6] = assay: Induction of cell death in mouse 4T1 cells assessed as increase in red fluorescence at 0.5 uM incubated for 24 hrs followed by light irradiation of 20 mW.cm/2 at 400 to 700nm for 10 mins by Calcein-AM/PI staining based analysis; format: functional

Compound: CCN(CC)c1ccc2nc3c4ccccc4c(=O)cc-3oc2c1 [NILE RED]
- Activity (MDA-MB-231 [1]): inactive
- Activity (4T1 [2]): inactive
- Activity (MDA-MB-231 [3]): inactive
- IC50 [4]: > 10 µM
- IC50 [5]: > 10 µM
- Activity (4T1 [6]): inactive

Reference: ChEMBL document CHEMBL6096728, “Simultaneous Induction of Immunogenic Pyroptosis and PD-L1 Downregulation by One Single Photosensitizer for Synergistic Cancer Photoimmunotherapy” (J Med Chem, 2025)
